Calls of active or inactive are those of the source. No cut-off for these calls is given here.
What was measured:
[1] = target: T1, Mushroom tyrosinase (Agaricus bisporus, UniProt O42713+Q00024+C7FF04+C7FF05)
Description: Inhibition of mushroom tyrosinase using L-DOPA as substrate

[2] = target: T1, Mushroom tyrosinase; remark: listed apart in the source
Description: Inhibition of mushroom tyrosinase using L-tyrosine as substrate

[3] = target: T1, Mushroom tyrosinase; experiment: Non-competitive inhibition of mushroom tyrosinase using L-DOPA as substrate by Lineweaver-Burk blot analysis
[4] = target: T2, Mushroom tyrosinase (Agaricus bisporus) (UniProt O42713+Q00024+C7FF04+C7FF05); experiment: Reversible inhibition of mushroom tyrosinase using L-DOPA as substrate by Lineweaver-Burk plot analysis
[5] = target: T2, Mushroom tyrosinase (Agaricus bisporus); experiment: […] inhibition of mushroom tyrosinase using L-tyrosine as substrate by Lineweaver-Burk blot analysis
[6] = target: T1, Mushroom tyrosinase; experiment: Non-competitive inhibition of mushroom tyrosinase using L-tyrosine as substrate by Lineweaver-Burk blot analysis
[7] = target: T2, Mushroom tyrosinase (Agaricus bisporus); experiment: Reversible inhibition of mushroom tyrosinase using L-tyrosine as substrate by Lineweaver-Burk plot analysis

Structure (SMILES)	IC50 [1]	IC50 [2]	also measured
CO[C@H]1O[C@H](CO)[C@@H](OCc2ccccc2)[C@H](OCc2ccccc2)[C@H]1OCc1ccccc1	> 500 µM	> 500 µM	
C#CCCOC1O[C@@H]2CO[C@@H](c3ccccc3)O[C@H]2[C@H](OCc2ccccc2)[C@H]1OCc1ccccc1 (some centres undefined)	257 µM	> 500 µM	
C#CCCO[C@H]1O[C@@H]2CO[C@@H](c3ccccc3)O[C@H]2[C@H](OCc2ccccc2)[C@H]1OCc1ccccc1	> 500 µM	> 500 µM	
CO[C@H]1O[C@H](COCc2ccccc2)[C@@H](OCc2ccccc2)[C@H](OCc2ccccc2)[C@H]1OCc1ccccc1	> 500 µM	191 µM	
CC#CCOC1O[C@@H]2CO[C@@H](c3ccccc3)O[C@H]2[C@H](O)[C@H]1O (some centres undefined)	> 500 µM	> 500 µM	
CC#CCO[C@@H]1O[C@@H]2CO[C@@H](c3ccccc3)O[C@H]2[C@H](OCc2ccccc2)[C@H]1OCc1ccccc1	> 500 µM	> 500 µM	
CC#CCO[C@@H]1O[C@H](COCc2ccccc2)[C@@H](OCc2ccccc2)[C@H](OCc2ccccc2)[C@H]1OCc1ccccc1	> 500 µM	179 µM	
C#CCO[C@H]1O[C@@H]2CO[C@@H](c3ccccc3)O[C@H]2[C@H](OCc2ccccc2)[C@H]1OCc1ccccc1	431 µM	> 500 µM	
CC#CCOC1O[C@H](COCc2ccccc2)[C@@H](OCc2ccccc2)[C@H](OCc2ccccc2)[C@H]1OCc1ccccc1 (some centres undefined)	70.7 µM	54 µM	inhibition [5]: Active; Ki [6]: 21 µM
C#CCO[C@@H]1O[C@H](COCc2ccccc2)[C@@H](OCc2ccccc2)[C@H](OCc2ccccc2)[C@H]1OCc1ccccc1	> 500 µM	94.7 µM	
COC[C@H]1O[C@H](OC)[C@H](OCc2ccccc2)[C@@H](OCc2ccccc2)[C@@H]1OCc1ccccc1	494 µM	> 500 µM	
C#CCOC1O[C@H](COCc2ccccc2)[C@@H](OCc2ccccc2)[C@H](OCc2ccccc2)[C@H]1OCc1ccccc1 (some centres undefined)	> 500 µM	81.9 µM	
CC#CCOC1O[C@H](CO)[C@@H](OCc2ccccc2)[C@H](OCc2ccccc2)[C@H]1OCc1ccccc1 (some centres undefined)	80.4 µM	> 500 µM	
C#CCOC1O[C@@H]2CO[C@@H](c3ccccc3)O[C@H]2[C@H](OCc2ccccc2)[C@H]1OCc1ccccc1 (some centres undefined)	383 µM	> 500 µM	
C#CCO[C@H]1O[C@H](COCc2ccccc2)[C@@H](OCc2ccccc2)[C@H](OCc2ccccc2)[C@H]1OCc1ccccc1	> 500 µM	> 500 µM	
C#CCOC[C@H]1OC(OCc2ccccc2)[C@H](OCc2ccccc2)[C@@H](OCc2ccccc2)[C@@H]1OCc1ccccc1 (some centres undefined)	> 500 µM	205 µM	
C#CCCOC1O[C@@H]2CO[C@@H](c3ccccc3)O[C@H]2[C@H](O)[C@H]1O (some centres undefined)	207 µM	463 µM	
CC#CCO[C@H]1O[C@H](COCc2ccccc2)[C@@H](OCc2ccccc2)[C@H](OCc2ccccc2)[C@H]1OCc1ccccc1	> 500 µM	321 µM	
c1ccc(COC[C@H]2OC(OCc3ccccc3)[C@H](OCc3ccccc3)[C@@H](OCc3ccccc3)[C@@H]2OCc2ccccc2)cc1 (some centres undefined)	> 500 µM	> 500 µM	
C#CCO[C@@H]1O[C@@H]2CO[C@@H](c3ccccc3)O[C@H]2[C@H](OCc2ccccc2)[C@H]1OCc1ccccc1	> 500 µM	> 500 µM	
CC#CCO[C@H]1O[C@@H]2CO[C@@H](c3ccccc3)O[C@H]2[C@H](OCc2ccccc2)[C@H]1OCc1ccccc1	> 500 µM	> 500 µM	
OC[C@H]1OC(OCc2ccccc2)[C@H](OCc2ccccc2)[C@@H](OCc2ccccc2)[C@@H]1OCc1ccccc1 (some centres undefined)	> 500 µM	> 500 µM	
COC[C@H]1OC(OCc2ccccc2)[C@H](OCc2ccccc2)[C@@H](OCc2ccccc2)[C@@H]1OCc1ccccc1 (some centres undefined)	435 µM	> 500 µM	
CC#CCOC[C@H]1OC(OCC#CC)[C@H](OCc2ccccc2)[C@@H](OCc2ccccc2)[C@@H]1OCc1ccccc1 (some centres undefined)	> 500 µM	72 µM	Ki [6]: 32 µM; inhibition [7]: Active
C#CCOC1O[C@@H]2CO[C@@H](c3ccccc3)O[C@H]2[C@H](O)[C@H]1O (some centres undefined)	> 500 µM	> 500 µM	
C#CCCO[C@@H]1O[C@@H]2CO[C@@H](c3ccccc3)O[C@H]2[C@H](OCc2ccccc2)[C@H]1OCc1ccccc1	> 500 µM	> 500 µM	
CC#CCOC1O[C@@H]2CO[C@@H](c3ccccc3)O[C@H]2[C@H](OCc2ccccc2)[C@H]1OCc1ccccc1 (some centres undefined)	> 500 µM	> 500 µM	
CC#CCOC[C@H]1OC(OC)[C@H](OCc2ccccc2)[C@@H](OCc2ccccc2)[C@@H]1OCc1ccccc1 (some centres undefined)	> 500 µM	274 µM	
CC#CCOC[C@H]1OC(OCc2ccccc2)[C@H](OCc2ccccc2)[C@@H](OCc2ccccc2)[C@@H]1OCc1ccccc1 (some centres undefined)	> 500 µM	> 500 µM	

Now from value to compound, other results behind:

IC50 [1]	IC50 [2]	Structure (SMILES)	also measured
> 500 µM	> 500 µM	C#CCCCOC1O[C@H](CO)[C@@H](OCc2ccccc2)[C@H](OCc2ccccc2)[C@H]1OCc1ccccc1 (some centres undefined)	
34.3 µM	150 µM	C#CCCOC1O[C@H](COCc2ccccc2)[C@@H](OCc2ccccc2)[C@H](OCc2ccccc2)[C@H]1OCc1ccccc1 (some centres undefined)	Ki [3]: 49 µM; inhibition [4]: Active
> 500 µM	105 µM	C#CCCCOC1O[C@H](COCc2ccccc2)[C@@H](OCc2ccccc2)[C@H](OCc2ccccc2)[C@H]1OCc1ccccc1 (some centres undefined)	
> 500 µM	208 µM	C#CCCCOC1O[C@H](COC(C)=O)[C@@H](OCc2ccccc2)[C@H](OCc2ccccc2)[C@H]1OCc1ccccc1 (some centres undefined)	
> 500 µM	> 500 µM	CO[C@H]1O[C@H](COC(C)=O)[C@@H](OCc2ccccc2)[C@H](OCc2ccccc2)[C@H]1OCc1ccccc1	
> 500 µM	> 500 µM	C#CCOC[C@H]1OC(OCC#C)[C@H](OCc2ccccc2)[C@@H](OCc2ccccc2)[C@@H]1OCc1ccccc1 (some centres undefined)	
> 500 µM	268 µM	C#CCCOC1O[C@H](COC(C)=O)[C@@H](OCc2ccccc2)[C@H](OCc2ccccc2)[C@H]1OCc1ccccc1 (some centres undefined)	
> 500 µM	461 µM	C#CCOC1O[C@H](COC(C)=O)[C@@H](OCc2ccccc2)[C@H](OCc2ccccc2)[C@H]1OCc1ccccc1 (some centres undefined)	
> 500 µM	> 500 µM	C#CCOC1O[C@H](COC)[C@@H](OCc2ccccc2)[C@H](OCc2ccccc2)[C@H]1OCc1ccccc1 (some centres undefined)	
400 µM	219 µM	CC#CCOC1O[C@H](COC(C)=O)[C@@H](OCc2ccccc2)[C@H](OCc2ccccc2)[C@H]1OCc1ccccc1 (some centres undefined)	
45.4 µM	73.6 µM	CC#CCOC1O[C@H](COC)[C@@H](OCc2ccccc2)[C@H](OCc2ccccc2)[C@H]1OCc1ccccc1 (some centres undefined)	Ki [3]: 52 µM; inhibition [4]: Active
> 500 µM	> 500 µM	C#CCCOC1O[C@H](CO)[C@@H](OCc2ccccc2)[C@H](OCc2ccccc2)[C@H]1OCc1ccccc1 (some centres undefined)	
> 500 µM	> 500 µM	C#CCCCOC1O[C@H](COC)[C@@H](OCc2ccccc2)[C@H](OCc2ccccc2)[C@H]1OCc1ccccc1 (some centres undefined)	
> 500 µM	> 500 µM	C#CCOC1O[C@H](CO)[C@@H](OCc2ccccc2)[C@H](OCc2ccccc2)[C@H]1OCc1ccccc1 (some centres undefined)	
288 µM	> 500 µM	C#CCOC[C@H]1OC(OCC#CC)[C@H](OCc2ccccc2)[C@@H](OCc2ccccc2)[C@@H]1OCc1ccccc1 (some centres undefined)	
> 500 µM	> 500 µM	C#CCOC[C@H]1O[C@H](OC)[C@H](OCc2ccccc2)[C@@H](OCc2ccccc2)[C@@H]1OCc1ccccc1	
> 500 µM	> 500 µM	C#CCCOC1O[C@H](COC)[C@@H](OCc2ccccc2)[C@H](OCc2ccccc2)[C@H]1OCc1ccccc1 (some centres undefined)	
357 µM	273 µM	CC(=O)OC[C@H]1OC(OCc2ccccc2)[C@H](OCc2ccccc2)[C@@H](OCc2ccccc2)[C@@H]1OCc1ccccc1 (some centres undefined)	
> 500 µM	> 500 µM	C#CCOC1O[C@H](COCC#CC)[C@@H](OCc2ccccc2)[C@H](OCc2ccccc2)[C@H]1OCc1ccccc1 (some centres undefined)	

Reference: ChEMBL document CHEMBL4622892, “New class of alkynyl glycoside analogues as tyrosinase inhibitors” (Bioorg Med Chem Lett, 2020)
